Reference: ChEMBL document CHEMBL4177539, “Discovery of N-((3R,4R)-4-Fluoro-1-(6-((3-methoxy-1-methyl-1H-pyrazol-4-yl)amino)-9-methyl-9H-purin-2-yl)pyrrolidine-3-yl)acrylamide (PF-06747775) through Structure-Based Drug Design: A High Affinity Irreversible Inhibitor Targeting Oncogenic EGFR Mutants with Selectivity over Wild-Type EGFR” (J Med Chem, 2017)

Legend:
[1] = Apparent intrinsic clearance in mouse microsomes; format: ADME, Microsome; details: read-out: CL(app)
[2] = Apparent intrinsic clearance in rat microsomes; format: ADME, Microsome; details: read-out: CL(app)
[3] = Apparent intrinsic clearance in dog microsomes; format: ADME, Canis lupus familiaris, Microsome; details: read-out: CL(app)
[4] = Apparent intrinsic clearance in human microsomes; format: ADME, Microsome; details: read-out: CL(app)
[5] = Apparent intrinsic hepatic clearance in mouse hepatocytes; format: ADME, cell-based, Hepatocyte; details: read-out: CLH(app)
[6] = Apparent intrinsic hepatic clearance in rat hepatocytes; format: ADME, cell-based, Hepatocyte; details: read-out: CLH(app)
[7] = Apparent intrinsic hepatic clearance in dog hepatocytes; format: ADME, cell-based, Canis lupus familiaris, Hepatocyte; details: read-out: CLH(app)
[8] = Fraction unbound in mouse plasma at 2 uM by LC-MS/MS based equilibrium dialysis method; format: ADME, cell-free
[9] = Fraction unbound in rat plasma at 2 uM by LC-MS/MS based equilibrium dialysis method; format: ADME, cell-free
[10] = Fraction unbound in dog plasma at 2 uM by LC-MS/MS based equilibrium dialysis method; format: ADME, cell-free, Canis lupus familiaris
[11] = Fraction unbound in human plasma at 2 uM by LC-MS/MS based equilibrium dialysis method; format: ADME, cell-free
CYP3A4 = CYP3A4 (Homo sapiens, UniProt P08684); test: Inhibition of human CYP3A4 at 10 uM; format: ADME
CYP2D6 = CYP2D6 (Homo sapiens, UniProt P10635); test: Inhibition of human CYP2D6 at 10 uM; format: ADME
CYP2C8 = CYP2C8 (Homo sapiens, UniProt P10632); test: Inhibition of human CYP2C8 at 10 uM; format: ADME
CYP2C9 = CYP2C9 (Homo sapiens, UniProt P11712); test: Inhibition of human CYP2C9 at 10 uM; format: ADME
CYP1A2 = CYP1A2 (Homo sapiens, UniProt P05177); test: Inhibition of human CYP1A2 at 10 uM; format: ADME
[12] = Half life in CD-1 mouse blood at 1 uM by LC-MS/MS analysis; format: ADME, tissue-based
[13] = target: Voltage-gated inwardly rectifying potassium channel KCNH2 (Homo sapiens, UniProt Q12809); test: Inhibition of human ERG
[14] = Half life in Sprague-Dawley rat blood at 1 uM by LC-MS/MS analysis; format: ADME, tissue-based
[15] = Half life in Beagle dog blood at 1 uM by LC-MS/MS analysis; format: ADME, tissue-based, Canis lupus familiaris
[16] = Half life in human blood at 1 uM by LC-MS/MS analysis; format: ADME, tissue-based
[17] = Clearance in Nu/Nu mouse plasma at 1 mg/kg, iv administered as single dose; format: ADME, organism-based
[18] = Clearance in Wistar Han rat plasma at 1 mg/kg, iv administered as single dose; format: ADME, organism-based
[19] = Clearance in Beagle dog plasma at 1 mg/kg, iv administered as single dose; format: ADME, organism-based, Canis lupus familiaris
[20] = Volume of distribution at steady state in Nu/Nu mouse at 1 mg/kg, iv administered as single dose; format: ADME, organism-based; details: in vivo, read-out: Vdss
[21] = Volume of distribution at steady state in Wistar Han rat at 1 mg/kg, iv administered as single dose; format: ADME, organism-based; details: in vivo, read-out: Vdss
[22] = Volume of distribution at steady state in Beagle dog at 1 mg/kg, iv administered as single dose; format: ADME, organism-based, Canis lupus familiaris; details: in vivo, read-out: Vdss
[23] = Terminal half life in Nu/Nu mouse at 1 mg/kg, iv administered as single dose; format: ADME, organism-based; details: in vivo, read-out: beta t1/2 (converted)
[24] = Terminal half life in Wistar Han rat at 1 mg/kg, iv administered as single dose; format: ADME, organism-based; details: in vivo, read-out: beta t1/2 (converted)
[25] = Terminal half life in Beagle dog at 1 mg/kg, iv administered as single dose; format: ADME, organism-based, Canis lupus familiaris; details: in vivo, read-out: beta t1/2 (converted)
[26] = Oral bioavailability in Wistar Han rat at 30 mg/kg administered as single dose; format: ADME, organism-based; details: in vivo
[27] = Oral bioavailability in Nu/Nu mouse at 1 mg/kg administered as single dose; format: ADME, organism-based; details: in vivo
[28] = Oral bioavailability in Beagle dog at 3 mg/kg administered as single dose; format: ADME, organism-based, Canis lupus familiaris; details: in vivo
Salmonella typhimurium = test: Mutagenicity in Salmonella typhimurium by Ames test; format: toxicity, organism-based; details: salmonella enterica subsp. enterica serovar typhimurium
Rattus norvegicus [29] = test: Toxicity in rat assessed as body weight loss administered as repeated dosing for 91 days; format: organism-based; details: in vivo, 2184 h
Canis familiaris = test: Toxicity in dog assessed as body weight loss administered as repeated dosing for 91 days; format: organism-based, Canis lupus familiaris; details: in vivo, 2184 h
Rattus norvegicus [30] = test: Toxicity in rat assessed as effect on blood pressure administered as single dose; format: organism-based; details: in vivo
Rattus norvegicus [31] = test: Toxicity in rat assessed as effect on blood pressure administered as repeated dosing; format: organism-based; details: in vivo

Chain of CYP3A4 (P08684 whole entry): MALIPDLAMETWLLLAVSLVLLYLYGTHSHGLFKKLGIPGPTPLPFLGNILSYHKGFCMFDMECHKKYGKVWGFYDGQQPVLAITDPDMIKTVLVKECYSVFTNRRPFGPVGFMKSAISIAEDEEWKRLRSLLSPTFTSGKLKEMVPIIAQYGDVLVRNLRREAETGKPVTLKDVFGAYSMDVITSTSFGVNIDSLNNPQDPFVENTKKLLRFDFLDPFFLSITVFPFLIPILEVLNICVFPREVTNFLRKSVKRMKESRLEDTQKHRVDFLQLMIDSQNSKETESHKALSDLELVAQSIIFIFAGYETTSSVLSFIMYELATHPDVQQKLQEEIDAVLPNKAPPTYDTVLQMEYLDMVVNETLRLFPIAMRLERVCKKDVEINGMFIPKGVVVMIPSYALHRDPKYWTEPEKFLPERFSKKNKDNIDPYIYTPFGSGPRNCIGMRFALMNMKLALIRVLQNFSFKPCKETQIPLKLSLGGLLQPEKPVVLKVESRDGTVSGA
Chain of CYP2C9 (P11712 whole entry): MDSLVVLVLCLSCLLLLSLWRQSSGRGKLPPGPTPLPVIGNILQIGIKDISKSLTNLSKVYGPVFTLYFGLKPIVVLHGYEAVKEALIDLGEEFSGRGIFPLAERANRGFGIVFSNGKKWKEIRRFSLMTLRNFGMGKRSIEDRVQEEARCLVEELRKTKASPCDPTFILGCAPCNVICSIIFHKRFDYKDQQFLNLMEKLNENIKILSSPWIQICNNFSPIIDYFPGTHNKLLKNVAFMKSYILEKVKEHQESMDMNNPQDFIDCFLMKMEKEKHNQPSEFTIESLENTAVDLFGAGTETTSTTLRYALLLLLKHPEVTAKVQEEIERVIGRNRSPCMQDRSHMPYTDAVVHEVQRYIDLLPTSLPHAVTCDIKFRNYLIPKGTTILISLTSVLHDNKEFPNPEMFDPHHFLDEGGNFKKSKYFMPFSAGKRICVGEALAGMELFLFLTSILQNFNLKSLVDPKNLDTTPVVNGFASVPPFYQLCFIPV
Chain of Voltage-gated inwardly rectifying potassium channel KCNH2 (Q12809 whole entry): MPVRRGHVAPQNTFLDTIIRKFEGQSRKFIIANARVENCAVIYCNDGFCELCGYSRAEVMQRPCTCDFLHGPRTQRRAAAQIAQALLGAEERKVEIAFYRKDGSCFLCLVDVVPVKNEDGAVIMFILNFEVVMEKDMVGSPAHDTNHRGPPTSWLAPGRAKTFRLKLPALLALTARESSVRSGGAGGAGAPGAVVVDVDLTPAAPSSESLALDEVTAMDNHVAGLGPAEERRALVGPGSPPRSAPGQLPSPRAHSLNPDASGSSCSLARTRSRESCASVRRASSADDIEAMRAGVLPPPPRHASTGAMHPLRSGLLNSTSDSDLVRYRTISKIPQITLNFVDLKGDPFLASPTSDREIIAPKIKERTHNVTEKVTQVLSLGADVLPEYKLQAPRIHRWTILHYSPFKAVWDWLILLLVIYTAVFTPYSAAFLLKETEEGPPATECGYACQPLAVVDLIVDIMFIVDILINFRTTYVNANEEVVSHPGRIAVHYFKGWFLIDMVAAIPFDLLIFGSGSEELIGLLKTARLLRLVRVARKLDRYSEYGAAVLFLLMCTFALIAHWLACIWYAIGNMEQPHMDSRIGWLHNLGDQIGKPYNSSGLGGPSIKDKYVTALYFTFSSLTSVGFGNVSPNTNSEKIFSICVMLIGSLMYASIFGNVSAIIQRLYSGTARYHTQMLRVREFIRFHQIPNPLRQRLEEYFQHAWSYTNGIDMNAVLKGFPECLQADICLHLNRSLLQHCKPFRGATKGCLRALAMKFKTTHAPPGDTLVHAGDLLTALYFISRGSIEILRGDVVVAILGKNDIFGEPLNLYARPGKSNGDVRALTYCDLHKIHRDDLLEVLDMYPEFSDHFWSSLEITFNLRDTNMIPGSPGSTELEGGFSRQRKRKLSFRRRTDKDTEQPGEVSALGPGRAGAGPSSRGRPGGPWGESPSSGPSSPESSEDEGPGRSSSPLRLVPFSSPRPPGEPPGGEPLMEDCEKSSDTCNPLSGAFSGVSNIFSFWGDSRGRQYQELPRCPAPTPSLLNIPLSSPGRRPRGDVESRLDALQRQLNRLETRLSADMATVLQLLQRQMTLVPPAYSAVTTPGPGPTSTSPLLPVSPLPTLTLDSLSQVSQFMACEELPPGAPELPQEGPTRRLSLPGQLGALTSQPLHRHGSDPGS
Chain of CYP2C8 (P10632 whole entry): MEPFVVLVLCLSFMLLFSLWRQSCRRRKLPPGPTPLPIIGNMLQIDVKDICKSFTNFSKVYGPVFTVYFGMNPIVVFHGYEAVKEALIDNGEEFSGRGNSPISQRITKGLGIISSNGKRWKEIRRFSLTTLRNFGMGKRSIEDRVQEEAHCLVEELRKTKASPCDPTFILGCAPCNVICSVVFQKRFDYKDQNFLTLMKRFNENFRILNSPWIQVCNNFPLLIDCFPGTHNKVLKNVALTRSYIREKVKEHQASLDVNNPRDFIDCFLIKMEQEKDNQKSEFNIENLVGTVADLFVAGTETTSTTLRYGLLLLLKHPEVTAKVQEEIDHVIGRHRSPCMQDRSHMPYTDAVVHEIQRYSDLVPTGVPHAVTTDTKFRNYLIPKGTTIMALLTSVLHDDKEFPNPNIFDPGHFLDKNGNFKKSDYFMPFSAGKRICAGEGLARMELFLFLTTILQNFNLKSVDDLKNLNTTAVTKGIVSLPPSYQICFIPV
Chain of CYP1A2 (P05177 whole entry): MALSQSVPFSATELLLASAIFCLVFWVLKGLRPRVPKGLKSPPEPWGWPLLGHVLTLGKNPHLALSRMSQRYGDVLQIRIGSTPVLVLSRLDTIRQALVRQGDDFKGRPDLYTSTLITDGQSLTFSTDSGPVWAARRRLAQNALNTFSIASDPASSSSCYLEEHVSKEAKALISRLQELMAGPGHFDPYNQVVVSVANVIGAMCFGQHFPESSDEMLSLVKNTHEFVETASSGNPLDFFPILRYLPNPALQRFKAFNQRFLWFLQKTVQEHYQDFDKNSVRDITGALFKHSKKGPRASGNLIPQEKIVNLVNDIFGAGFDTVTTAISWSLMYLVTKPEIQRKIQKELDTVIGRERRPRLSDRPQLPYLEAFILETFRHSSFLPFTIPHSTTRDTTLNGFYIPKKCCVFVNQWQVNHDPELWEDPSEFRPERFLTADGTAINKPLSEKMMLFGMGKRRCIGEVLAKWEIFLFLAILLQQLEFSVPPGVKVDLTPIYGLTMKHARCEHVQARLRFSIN
Chain of CYP2D6 (P10635 whole entry): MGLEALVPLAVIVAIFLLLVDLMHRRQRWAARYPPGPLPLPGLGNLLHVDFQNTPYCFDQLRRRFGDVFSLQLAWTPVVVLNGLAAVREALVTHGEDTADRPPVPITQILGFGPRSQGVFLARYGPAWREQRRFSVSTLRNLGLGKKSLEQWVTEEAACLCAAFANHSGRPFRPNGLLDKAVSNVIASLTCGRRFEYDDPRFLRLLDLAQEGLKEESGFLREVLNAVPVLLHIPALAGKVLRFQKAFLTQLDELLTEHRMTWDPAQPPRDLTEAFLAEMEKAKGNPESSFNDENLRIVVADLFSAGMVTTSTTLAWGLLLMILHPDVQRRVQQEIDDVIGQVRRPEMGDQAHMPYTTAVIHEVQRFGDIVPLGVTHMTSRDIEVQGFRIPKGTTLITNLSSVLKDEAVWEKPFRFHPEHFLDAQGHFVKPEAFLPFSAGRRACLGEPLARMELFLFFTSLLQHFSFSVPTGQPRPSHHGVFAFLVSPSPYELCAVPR

## C=CC(=O)N[C@@H]1CN(c2nc(Nc3cn(C)nc3OC)c3ncn(C)c3n2)C[C@H]1F [MAVELERTINIB]
[1]
  CLint scaled: 74 mL/min/kg
[2]
  CLint scaled: 141 mL/min/kg
[3]
  CLint scaled: 3 mL/min/kg
[4]
  CLint scaled: < 6 mL/min/kg
[5]
  CLint scaled: 196 mL/min/kg
[6]
  CLint scaled: 183 mL/min/kg
[7]
  CLint scaled: 17 mL/min/kg
[8]
  fraction unbound at 2 µM: 0.2 to 0.49
[9]
  fraction unbound at 2 µM: 0.22
[10]
  fraction unbound at 2 µM: 0.75
[11]
  fraction unbound at 2 µM: 0.27
CYP3A4
  inhibition at 10 µM: < 30%
CYP2D6
  inhibition at 10 µM: < 30%
CYP2C8
  inhibition at 10 µM: < 30%
CYP2C9
  inhibition at 10 µM: < 30%
CYP1A2
  inhibition at 10 µM: < 30%
[12]
  half-life at 1 µM: 5.1 h
[13]
  IC50: > 100 µM
[14]
  half-life at 1 µM: 3.95 h
[15]
  half-life at 1 µM: 4.65 h
[16]
  half-life at 1 µM: 5.8 h
[17]
  clearance: 53 mL/min/kg
[18]
  clearance: 49 mL/min/kg
[19]
  clearance: 12 mL/min/kg
[20]
  Vd: 1.48 L/kg
[21]
  Vd: 0.66 L/kg
[22]
  Vd: 0.94 L/kg
[23]
  half-life: 0.56 h
[24]
  half-life: 0.28 h
[25]
  half-life: 1.3 h
[26]
  bioavailability: 11%
[27]
  bioavailability: 60%
[28]
  bioavailability: 66%
Salmonella typhimurium
  Activity: Non-Toxic
Rattus norvegicus [29]
  Activity: Non-Toxic
Canis familiaris
  Activity: Non-Toxic
Rattus norvegicus [30]
  Activity: Non-Toxic
Rattus norvegicus [31]
  Activity: Non-Toxic
